From patent US6403621B1, “Method for protecting plants” (Syngenta Crop Protection, Inc., priority 1997, dated 2002)

Experiments:
[1] = tested on: Eggs and juvenile root-knot nematodes; assay: Direct effect on eggs and juvenile root-knot nematodes in aqueous solution; parameters: species or system Meloidogyne spp.
Text: Direct Effect of Acibenzolar-S-methyl onto Nematodes Eggs and juvenile root-knot nematodes are placed into aqueous solutions of acibenzolar-S-methyl (1, 10, 20 and 50 ppm active ingredient). No effect is observed on egg hatching and viability on those eggs and juvenils on penetration of those nematodes into tomato roots and on the number of eggs produced by those nematodes on tomatoes.

grapevines = assay: Plant tolerance (phytotoxicity, appearance, fresh weights) of treated grapevines; type: in vivo, Vitis vinifera (Cabernet Sauvignon); details: 50 mg/l foliar spray
Protocol: (§1) Uniformly developed rooted hardwood grapevine cuttings, variety Cabernet Sauvignon (Vitis vinifera), are planted into 20 cm diameter pots (one plant per pot) containing a pasteurised potting mix consisting of 50:50 coarse sand and peat. (Prior to pasteurisation, 300 g of fertiliser is added to each 50 liter bin of potting mix. The fertiliser consisted of 1000 g single superphosphate, 200 g ammonium nitrate, 150 g potassium sulphate, 100 g ferrous sulphate, 3000 g dolomite lime and 1500 g lime). The grapevines are grown in a glasshouse at 19-24° C. The plants are watered on alternate days, and fertilised weekly with a water soluble fertiliser. Grapevines are inoculated with 1000 juveniles of a mixed population of root-knot nematodes (Meloidogyne javanica and M. arenaria) 4 weeks after planting. The nematodes are pipetted into two 2cm deep holes at the base of the plant. Grapevine roots are harvested for nematode egg counts 10 weeks after inoculation (described below).
(§2) Acibenzolar-S-methyl (which is benzo(1,2,3)thiadiazole-7-carbothioic acid S-methyl ester, a plant activator from NOVARTIS) is formulated as a 50% water dispersible granule, diluted to 50 mg per liter of spray mixture and sprayed onto the leaves of the grapevines (using a hand-held sprayer) until the point of run-off.

[2] = tested on: root-knot nematodes (Meloidogyne javanica and M. arenaria); assay: Egg production by root-knot nematodes on inoculated grapevines after foliar spray; type: in vivo; details: 50 mg/l foliar spray, eggs in 20 ml sub-sample
Protocol: (§3) Root-knot nematodes (Meloidogyne spp.) are cultured on tobacco or tomato. Root-knot nematode eggs are collected from these plants and hatched for inoculation of the grapevines using the standard method. Nematode eggs are collected from the inoculated grapevines by agitating clean root pieces in 0,8% NaOCl for four minutes. The roots are washed on a bank of three sieves and eggs collected on a 25 μm sieve. The eggs are washed into 100 ml of water and the number of eggs in a 20 ml sub-sample is estimated using a Doncaster dish. Galling is assessed in grapevine roots before egg counts. The roots are assessed with the naked eye for percentage of galls on the roots.
as §1, §2
a) cumulative applications: In the first series, acibenzolar-S-methyl is applied to the plants once, twice or three times. The single treatment of acibenzolar-S-methyl is applied one week before inoculation; the double treatment is applied one week before inoculation and at the same time as inoculation; for the third treatment acibenzolar-S-methyl is applied one week before inoculation, at inoculation and one week after inoculation.
(§4) b) single applications: A second series of experiments tested only single applications of acibenzolar-S-methyl either five days before inoculation, at the same time as inoculation or five days after inoculation. Both series of experiments have been completed twice. Water is used as the control treatment in each series.
(§5) The tables indicate the number of eggs produced by Meloidogyne spp in a 20 ml sub-sample, and the percentage galling on roots, resp.

[3] = tested on: root-knot nematodes (Meloidogyne javanica and M. arenaria); assay: Percentage galling on grapevine roots after foliar spray; type: in vivo; details: 50 mg/l foliar spray
Protocol: as §3, §1, §2, §4, §5

nematodes = assay: Protection of other crops against attack by nematodes; type: in vivo; details: applied on tomatoes, soybean, carrots, potatoes and beet
Text: Good effects for protecting plants against attack by nematodes are also found by applying acibenzolar-S-methyl on tomatoes, soybean, carrots, potatoes and beet.

[4] = after exposure to aqueous solutions, 1, 10, 20 and 50 ppm active ingredient

For `CSC(=O)c1cccc2nnsc12` [acibenzolar-S-methyl, benzo(1,2,3)thiadiazole-7-carbothioic acid S-methyl ester], the “effect on number of eggs produced by the nematodes on tomatoes” value [1, 4] was “No effect”, the “effect on penetration of nematodes into tomato roots” value [1, 4] was “No effect” and the “effect on egg hatching and viability of eggs and juveniles” value ([1]; aqueous solutions, 1, 10, 20 and 50 ppm active ingredient) was “No effect”. The “appearance of grapevines at harvest” value (grapevines; versus water control) was “no significant differences”, the phytotoxicity (grapevines; grapevines) was “No phytotoxicity” and the “root fresh weights or fresh weight of the foliage and stems” value (grapevines; grapevines) was “no difference”. For the same compound, the Number of eggs ([2]; one application (one week before inoculation), first experiment, 10 weeks after inoculation, control 4320) was 1520 (8), the Number of eggs ([2]; one application (one week before inoculation), second experiment, control 240) was 150 (7) and the Number of eggs ([2]; three applications (one week before, at and one week after inoculation), first experiment, control 4320) was 1400 (6). The Number of eggs ([2]; three applications (one week before, at and one week after inoculation), second experiment, control 240) was 20 (7), the Number of eggs ([2]; two applications (one week before and at inoculation), first experiment, control 4320) was 740 (7) and the Number of eggs ([2]; two applications (one week before and at inoculation), second experiment, control 240) was 100 (7). For the same compound, the Mean percentage galling ([3]; single application at inoculation, first experiment, control 10) was 2.3 (8) %, the Mean percentage galling ([3]; single application at inoculation, second experiment, control 5) was 3 (6) % and the Mean percentage galling ([3]; single application five days after inoculation, first experiment, control 10) was 1.1 (8) %. For the same compound, the Mean percentage galling ([3]; single application five days after inoculation, second experiment, control 5) was 4 (8) %, the Mean percentage galling ([3]; single application five days before inoculation, first experiment, control 10) was 0.6 (8) % and the Mean percentage galling ([3]; single application five days before inoculation, second experiment, control 5) was 2 (7) %. The “protecting plants against attack by nematodes” value (nematodes) was “Good effects”.
